Results on 18 molecules are retold here after patent US20080280879A1, “SUBSTITUTED HETEROCYCLIC DERIVATIVES AND THEIR PHARMACEUTICAL USE AND COMPOSITIONS” (priority 2007, published 2008).

Molecules are shown by their SMILES. Converted amounts (≈) assume the structure as drawn. A value given as a limit tells only on which side of the number the result lay.

What all share (type): cell-based, Staphylococcus aureus
Test [1] concerns Staph aureus 1146. The test can be described thus: MIC in Mueller-Hinton Broth with 50% pooled inactivated human serum, Assay 1, Table 12. Conditions: for MIC: Staphylococcus aureus, 1146, Staph aureus 1146, Assay 1, 50% human serum, read-out: MIC, column C; for MIC, column C: Staph aureus 1146, Assay 1, 50% human serum. The procedure, abridged: (§1)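 Compounds were prepared in DMSO at 10 mg/ml, then tested by microtiter broth dilution following CLSI M7-A7. Growth was scored visually, and the MIC taken as the lowest concentration without macroscopically visible growth. Where tested repeatedly, the geometric mean is given.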

Test [2] has as its system Staph aureus 1095 MRSA. The test can be described thus: MIC, microtiter broth dilution (CLSI M7-A7), Assay 1, Table 12 column A, no serum. The note with it: Assay 1, no serum; for MIC: Staphylococcus aureus, MRSA. The procedure, abridged: as §1
A general note: Dilution methods test growth across graded concentrations, often in twofold steps.

The test system of test [3] is Staph aureus 1146. The test can be described thus: MIC, microtiter broth dilution (CLSI M7-A7), Assay 1, Table 12 column B, no serum. Conditions: for MIC: Staphylococcus aureus, 1146, Staph aureus 1146, Assay 1, no serum; for MIC, column B: Staph aureus 1146, Assay 1, no serum. The procedure, abridged:
as §1

Test [4] has as its system Staph aureus 2812. The test can be described thus: MIC, microtiter broth dilution (CLSI M7-A7), Assay 1, Table 12 column E, no serum. Conditions: for MIC: Staphylococcus aureus, 2812, Staph aureus 2812, Assay 1, no serum; for MIC, column E: Staph aureus 2812, Assay 1, no serum. The procedure, abridged: as §1
In test [5] the test system is Staph aureus 2811. The test can be described thus: MIC, microtiter broth dilution (CLSI M7-A7), Assay 1, Table 12 column D, no serum. The note with it: for MIC: Staphylococcus aureus, 2811, Staph aureus 2811, Assay 1, no serum; for MIC, column D: Staph aureus 2811, Assay 1, no serum. In a few lines:
as §1

As a reminder, the MIC is the lowest concentration found to suppress growth. On to `COc1ccc2nccc(C(O)CC[C@@H]3CCN(C4CC(c5nc(C6CC6)no5)C4)C[C@@H]3C(=O)O)c2c1` (stereo partly drawn) [Example 165, (3R,4R)-1-[3-(3-cyclopropyl-1,2,4-oxadiazol-5-yl)cyclobutyl]-4-[3-hydroxy-3-(6-methoxyquinolin-4-yl)propyl]piperidine-3-carboxylic acid], for which the MIC in test [1] was > 64 µg/mL; in test [2] it was > 64 µg/mL; in test [3], 32 µg/mL (≈ 63.2 µM); in test [4], 64 µg/mL (≈ 126 µM); in test [5] it was 32 µg/mL (≈ 63.2 µM).
Regarding `COc1ccc2nccc(C(O)CC[C@@H]3CCN(C4CC(c5nc(C(C)C)no5)C4)C[C@@H]3C(=O)O)c2c1` (stereo partly drawn) [Example 166, (3R,4R)-4-[3-hydroxy-3-(6-methoxyquinolin-4-yl)propyl]-1-[3-(3-isopropyl-1,2,4-oxadiazol-5-yl)cyclobutyl]piperidine-3-carboxylic acid], the MIC in test [1], in test [2], in test [3], in test [4] and in test [5] was > 64 µg/mL in each case.
With `CCCc1noc(C2CC(N3CC[C@@H](CCC(O)c4ccnc5ccc(OC)cc45)[C@@H](C(=O)O)C3)C2)n1` (stereo partly drawn) [Example 167, (3R,4R)-4-[3-hydroxy-3-(6-methoxyquinolin-4-yl)propyl]-1-[3-(3-propyl-1,2,4-oxadiazol-5-yl)cyclobutyl]piperidine-3-carboxylic acid], the minimum inhibitory concentration (MIC) in test [1], in test [2], in test [3], in test [4] and in test [5] was > 64 µg/mL in each case.
Regarding `CCOCCc1noc(C2CC(N3CC[C@@H](CCC(O)c4ccnc5ccc(OC)cc45)[C@@H](C(=O)O)C3)C2)n1` (stereo partly drawn) [Example 168, (3R,4R)-1-{3-[3-(2-ethoxyethyl)-1,2,4-oxadiazol-5-yl]cyclobutyl}-4-[3-hydroxy-3-(6-methoxyquinolin-4-yl)propyl]piperidine-3-carboxylic acid], the MIC in test [1], in test [2], in test [3], in test [4] and in test [5] was > 64 µg/mL in each case.
For `COCc1noc(C2CC(N3CC[C@@H](CCC(O)c4ccnc5ccc(OC)cc45)[C@@H](C(=O)O)C3)C2)n1` (stereo partly drawn) [Example 169, (3R,4R)-4-[3-hydroxy-3-(6-methoxyquinolin-4-yl)propyl]-1-{3-[3-(methoxymethyl)-1,2,4-oxadiazol-5-yl]cyclobutyl}piperidine-3-carboxylic acid], the MIC in test [1], in test [2], in test [3], in test [4] and in test [5] was > 64 µg/mL throughout.
Take `COc1ccc2nccc(C(O)CC[C@@H]3CCN(C4CC(c5nc(CC6CC6)no5)C4)C[C@@H]3C(=O)O)c2c1` (stereo partly drawn) [Example 170, (3R,4R)-1-{3-[3-(cyclopropylmethyl)-1,2,4-oxadiazol-5-yl]cyclobutyl}-4-[3-hydroxy-3-(6-methoxyquinolin-4-yl)propyl]piperidine-3-carboxylic acid]: the MIC in test [1], in test [2], in test [3], in test [4] and in test [5] was > 64 µg/mL throughout.
For the molecule `COc1ccc2nccc(C(O)CC[C@@H]3CCN(C4CC(c5cc(C)on5)C4)C[C@@H]3C(=O)O)c2c1` (stereo partly drawn) [Example 171, (3R,4R)-4-[3-Hydroxy-3-(6-methoxy-quinolin-4-yl)-propyl}-1-[3-(5-methyl-isoxazol-3-yl)-cyclobutyl]-piperidine-3-carboxylic acid], the MIC in test [1] is 16 µg/mL (≈ 33.4 µM); in test [2] it was 16 µg/mL (≈ 33.4 µM); in test [3] it was 8 µg/mL (≈ 16.7 µM); in test [4], 8 µg/mL (≈ 16.7 µM); in test [5], 8 µg/mL (≈ 16.7 µM).
For the molecule `COc1ccc(F)c(C2CC(N3CC[C@@H](CC[C@H](O)c4ccnc5ccc(OC)cc45)[C@@H](C(=O)O)C3)C2)c1` (stereo partly drawn) [Example 172, (3R,4R)-1-[3-(2-fluoro-5-methoxyphenyl)cyclobutyl]-4-[(3S)-3-hydroxy-3-(6-methoxyquinolin-4-yl)propyl]piperidine-3-carboxylic acid], the MIC in test [1] came out at 32 µg/mL (≈ 61.2 µM); in test [2], 4 µg/mL (≈ 7.65 µM); in test [3] it was 2 µg/mL (≈ 3.83 µM); in test [4], 2 µg/mL (≈ 3.83 µM); in test [5], 1 µg/mL (≈ 1.91 µM).
For `COc1ccc2ncc(F)c(CCCC3(C(=O)O)CCN(C4CC(c5ccccc5)C4)C3)c2c1` (stereo not drawn) [Example 173, 3-[3-(3-fluoro-6-methoxyquinolin-4-yl)propyl]-1-(3-phenylcyclobutyl)pyrrolidine-3-carboxylic acid], the MIC in test [1] was 8 µg/mL (≈ 17.3 µM); in test [2], < 0.0625 µg/mL; in test [3], < 0.0625 µg/mL; in test [4], < 0.0625 µg/mL; in test [5] it was < 0.0625 µg/mL.
Turning to `COc1ccc2ncc(F)c(CCCC3(C(=O)O)CCN(C4CC(c5c(F)cccc5F)C4)C3)c2c1` (stereo not drawn) [Example 174, 1-[3-(2,6-difluorophenyl)cyclobutyl]-3-[3-(3-fluoro-6-methoxyquinolin-4-yl)propyl]pyrrolidine-3-carboxylic acid], the “MIC, column C” value in test [1] came to 4.00 µg/mL (≈ 8.02 µM). Moreover, the MIC in test [2], in test [3], in test [4] and in test [5] was < 0.0625 µg/mL throughout.
With `COc1ccc2ncc(Cl)c(C(O)CCC3(C(=O)O)CCN(C4CC(c5ccccc5)C4)C3)c2c1` (stereo not drawn) [Example 175, 3-[3-(3-chloro-6-methoxyquinolin-4-yl)-3-hydroxypropyl]-1-(3-phenylcyclobutyl)pyrrolidine-3-carboxylic acid], the minimal inhibitory concentration (MIC) in test [1] was 4 µg/mL (≈ 8.08 µM); in test [2], 0.5 µg/mL (≈ 1.01 µM); in test [3], < 0.0625 µg/mL; in test [4], < 0.0625 µg/mL; in test [5], < 0.0625 µg/mL.
On to `COc1ccc2ncc(Cl)c(C(O)CCC3(C(=O)O)CCN(C4CC(c5c(F)cccc5F)C4)C3)c2c1` (stereo not drawn) [Example 176, 3-[3-(3-chloro-6-methoxyquinolin-4-yl)-3-hydroxypropyl]-1-[3-(2,6-difluorophenyl)cyclobutyl] pyrrolidine-3-carboxylic acid], for which the MIC was 4 µg/mL (≈ 7.53 µM) in test [1]; 0.125 µg/mL (≈ 0.235 µM) in test [2]; < 0.0625 µg/mL in test [3]; < 0.0625 µg/mL in test [4]; < 0.0625 µg/mL in test [5].
On to `COc1ccc2nccc(C(O)CC[C@@H]3CCN(CC4CC(c5ccccc5)C4)C[C@@H]3C(=O)O)c2c1` (stereo partly drawn) [Example 178, (3R,4R)-4-[3-hydroxy-3-(6-methoxyquinolin-4-yl)propyl]-1-[(3-phenylcyclobutyl)methyl]piperidine-3-carboxylic acid], for which, in test [1], the “MIC, column C” value was 32.0 µg/mL (≈ 65.5 µM). Also, in test [2], the “MIC, column A” value was found to be 8.00 µg/mL (≈ 16.4 µM). For the same molecule, the “MIC, column B” value in test [3] was 2.00 µg/mL (≈ 4.09 µM). The “MIC, column E” value in test [4] is 4.00 µg/mL (≈ 8.19 µM). Further, in test [5], the “MIC, column D” value amounted to 2.00 µg/mL (≈ 4.09 µM).
In the case of `COc1ccc2nc(C)cc(C(O)CC[C@@H]3CCN(C4CC(c5c(F)cccc5F)C4)C[C@@H]3C(=O)O)c2c1` (stereo partly drawn) [Example 179, (3R,4R)-1-[3-(2,6-difluorophenyl)cyclobutyl]-4-[3-hydroxy-3-(6-methoxy-2-methylquinolin-4-yl)propyl] piperidine-3-carboxylic acid], the MIC in test [1] is 32 µg/mL (≈ 61 µM); in test [2], 2 µg/mL (≈ 3.81 µM); in test [3] it was 1 µg/mL (≈ 1.91 µM); in test [4], 1 µg/mL (≈ 1.91 µM); in test [5], 1 µg/mL (≈ 1.91 µM).
Take `COc1ccc2ncc(F)c(CCCC3(C(=O)O)CCN(C4CC(c5c(F)cccc5F)C4)C3)c2c1` (stereo not drawn) [Example 180, 1-[3-(2,6-difluorophenyl)cyclobutyl]-3-[3-(3-fluoro-6-methoxyquinolin-4-yl)propyl]pyrrolidine-3-carboxylic acid]: the “MIC, column C” value in test [1] stood at 16.0 µg/mL (≈ 32.1 µM). In addition, the “MIC, column A” value in test [2] was <0.0625 µg/mL. Further, in test [3], the “MIC, column B” value is <0.0625 µg/mL. For the same molecule, in test [4], the “MIC, column E” value is <0.0625 µg/mL. For the same molecule, the “MIC, column D” value in test [5] was <0.0625 µg/mL.
Regarding `COc1ccc2ncc(F)c(CCCC3(C(=O)O)CCN(C4CC(c5c(F)cccc5F)C4)C3)c2c1` (stereo not drawn) [Example 181, 1-[3-(2,6-difluorophenyl)cyclobutyl]-3-[3-(3-fluoro-6-methoxyquinolin-4-yl)propyl]pyrrolidine-3-carboxylic acid], the “MIC, column C” value in test [1] was 16.0 µg/mL (≈ 32.1 µM). Besides, in test [2], the “MIC, column A” value is <0.0625 µg/mL. Moreover, in test [3], the “MIC, column B” value was <0.0625 µg/mL. The “MIC, column E” value in test [4] is <0.0625 µg/mL. Further, in test [5], the “MIC, column D” value was <0.0625 µg/mL.
As for `COc1ccc2ncc(F)c(C(O)CC[C@@H]3CCN(C4CC(c5c(F)cccc5F)C4)C[C@@H]3C(=O)O)c2n1` (stereo partly drawn) [Example 182, (3R,4R)-1-[3-(2,6-difluorophenyl)cyclobutyl]-4-[3-(3-fluoro-6-methoxy-1,5-naphthyridin-4-yl)-3-hydroxypropyl]piperidine-3-carboxylic acid], in test [1], the “MIC, column C” value was 1.00 µg/mL (≈ 1.89 µM). For the same molecule, the MIC in test [2], in test [3], in test [4] and in test [5] was < 0.0625 µg/mL in each case.
In the case of `COc1ccc2nccc(C(O)CC[C@@H]3CCN(C4CCC(c5cc(F)ccc5F)C4)C[C@@H]3C(=O)O)c2c1` (stereo partly drawn) [Example 183, (3R,4R)-1-[3-(2,5-difluorophenyl)cyclopentyl]-4-[3-hydroxy-3-(6-methoxyquinolin-4-yl)propyl]piperidine-3-carboxylic acid], the MIC in test [1] is 8 µg/mL (≈ 15.2 µM); in test [2], 2 µg/mL (≈ 3.81 µM); in test [3], 0.25 µg/mL (≈ 0.477 µM); in test [4] it was 0.5 µg/mL (≈ 0.953 µM); in test [5] it was 0.25 µg/mL (≈ 0.477 µM).
